Results taken from ChEMBL document CHEMBL1909294, “Translating clinical findings into knowledge in drug safety evaluation--drug induced liver injury prediction system (DILIps)” (PLoS Comput Biol, 2011).

Experiments:
Hepatotoxicity [1] = system: Hepatotoxicity;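 on HepSE bilirubinemia: bilirubinemia hepatic side effect score drawn from the DILIps training data, a prediction system for drug-induced liver injury; call rule not given here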;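 on HepSE cholecystitis: Cholecystitis-related hepatic side effect score drawn from the DILIps (drug-induced liver injury prediction) training data set; call rule not given here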;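 on HepSE cholelithiasis: hepatic side effect score for cholelithiasis, drawn from the DILIps training data for predicting drug-induced liver injury; call rule not given here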;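 on HepSE cirrhosis: cirrhosis hepatic side effect score taken from the DILIps (drug-induced liver injury prediction) training set; call rule not given here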;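 on HepSE elevated liver function tests: hepatic side effect score for raised liver function tests, as recorded in the DILIps training set used for predicting drug-induced liver injury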; on HepSE hepatic failure: call rule not given here;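 on HepSE hepatomegaly: hepatic side effect score for hepatomegaly, taken from the training set of the DILIps drug-induced liver injury prediction system; call rule not given here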
Hepatotoxicity [2] = system: Hepatotoxicity; remark: listed apart in the source;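 on HepSE bilirubinemia: bilirubinemia hepatic side effect score drawn from the DILIps training data, a prediction system for drug-induced liver injury; call rule not given here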;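 on HepSE cholecystitis: Cholecystitis-related hepatic side effect score drawn from the DILIps (drug-induced liver injury prediction) training data set; call rule not given here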;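 on HepSE cholelithiasis: hepatic side effect score for cholelithiasis, drawn from the DILIps training data for predicting drug-induced liver injury; call rule not given here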;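 on HepSE cirrhosis: cirrhosis hepatic side effect score taken from the DILIps (drug-induced liver injury prediction) training set; call rule not given here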;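 on HepSE elevated liver function tests: hepatic side effect score for raised liver function tests, as recorded in the DILIps training set used for predicting drug-induced liver injury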; on HepSE hepatic failure: call rule not given here;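 on HepSE hepatomegaly: hepatic side effect score for hepatomegaly, taken from the training set of the DILIps drug-induced liver injury prediction system; call rule not given here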
Hepatotoxicity [3] = system: Hepatotoxicity; remark: listed apart in the source;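 on HepSE bilirubinemia: bilirubinemia hepatic side effect score drawn from the DILIps training data, a prediction system for drug-induced liver injury; call rule not given here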;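 on HepSE cholecystitis: Cholecystitis-related hepatic side effect score drawn from the DILIps (drug-induced liver injury prediction) training data set; call rule not given here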;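 on HepSE cholelithiasis: hepatic side effect score for cholelithiasis, drawn from the DILIps training data for predicting drug-induced liver injury; call rule not given here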;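 on HepSE cirrhosis: cirrhosis hepatic side effect score taken from the DILIps (drug-induced liver injury prediction) training set; call rule not given here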;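 on HepSE elevated liver function tests: hepatic side effect score for raised liver function tests, as recorded in the DILIps training set used for predicting drug-induced liver injury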; on HepSE hepatic failure: call rule not given here
Hepatotoxicity [4] = system: Hepatotoxicity; remark: listed apart in the source;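 on HepSE bilirubinemia: bilirubinemia hepatic side effect score drawn from the DILIps training data, a prediction system for drug-induced liver injury; call rule not given here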;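 on HepSE cholecystitis: Cholecystitis-related hepatic side effect score drawn from the DILIps (drug-induced liver injury prediction) training data set; call rule not given here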;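 on HepSE cholelithiasis: hepatic side effect score for cholelithiasis, drawn from the DILIps training data for predicting drug-induced liver injury; call rule not given here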;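 on HepSE cirrhosis: cirrhosis hepatic side effect score taken from the DILIps (drug-induced liver injury prediction) training set; call rule not given here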;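 on HepSE elevated liver function tests: hepatic side effect score for raised liver function tests, as recorded in the DILIps training set used for predicting drug-induced liver injury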; on HepSE hepatic failure: call rule not given here
Hepatotoxicity [5] = system: Hepatotoxicity; remark: listed apart in the source; on HepSE hepatic failure: call rule not given here
Hepatotoxicity [6] = system: Hepatotoxicity; remark: listed apart in the source; on HepSE hepatic failure: call rule not given here
Hepatotoxicity [7] = system: Hepatotoxicity; remark: listed apart in the source
Hepatotoxicity [8] = system: Hepatotoxicity; remark: listed apart in the source
Hepatotoxicity [9] = system: Hepatotoxicity; remark: listed apart in the source
Hepatotoxicity [10] = system: Hepatotoxicity; remark: listed apart in the source
Hepatotoxicity [11] = system: Hepatotoxicity; remark: listed apart in the source
Hepatotoxicity [12] = system: Hepatotoxicity; remark: listed apart in the source
Hepatotoxicity [13] = system: Hepatotoxicity; remark: listed apart in the source
Hepatotoxicity [14] = system: Hepatotoxicity; remark: listed apart in the source
Hepatotoxicity [15] = system: Hepatotoxicity; remark: listed apart in the source
Hepatotoxicity [16] = system: Hepatotoxicity; remark: listed apart in the source

C=CCOc1ccc(CC(=O)O)cc1Cl [ALCLOFENAC]
DILI positive/negative (Hepatotoxicity [1]; Liver): 1

Cc1cc(Br)c(O)c2ncccc12 [TILBROQUINOL]
DILI positive/negative (Hepatotoxicity [1]): 1

CC(COc1ccccc1)NN (centres undefined) [PHENOXYPROPAZINE]
DILI positive/negative (Hepatotoxicity [1]): 1

O=C(O)Cc1csc(-c2ccc(Cl)cc2)n1 [FENCLOZIC ACID]
DILI positive/negative (Hepatotoxicity [1]): 1

CCCCN1C(=O)[C@@H]([C@H](O)C2CCCCC2)NC(=O)C12CCN(Cc1ccc(Oc3ccc(C(=O)O)cc3)cc1)CC2 [APLAVIROC]
DILI positive/negative (Hepatotoxicity [1]): 1

O=C(CCNNC(=O)c1ccncc1)NCc1ccccc1 [NIALAMIDE]
DILI positive/negative (Hepatotoxicity [1]): 1

CCCCNc1ccc(C(=O)OCCOCCOCCOCCOCCOCCOCCOCCOCCOC)cc1 [BENZONATATE]
DILI positive/negative (Hepatotoxicity [1]): 0

S=C=Nc1cccc2ccccc12 [1-NAPHTHYLISOTHIOCYANATE]
DILI positive/negative (Hepatotoxicity [2]): 1

CN1CCC(=C2c3ccccc3CCc3cccnc32)CC1.O=C(O)/C=C\C(=O)O.O=C(O)/C=C\C(=O)O [AZATADINE MALEATE]
DILI positive/negative (Hepatotoxicity [2]): 1

CCCCC(CC)COC(=O)C=Cc1ccc(OC)cc1 (centres undefined) [OCTINOXATE]
DILI positive/negative (Hepatotoxicity [2]): 1

CN(C)CCN(Cc1ccccc1)c1ccccn1.Cl [TRIPELENNAMINE HYDROCHLORIDE]
DILI positive/negative (Hepatotoxicity [2]): 1

CC(C)(Sc1cc(C(C)(C)C)c(O)c(C(C)(C)C)c1)Sc1cc(C(C)(C)C)c(O)c(C(C)(C)C)c1 [PROBUCOL]
DILI positive/negative (Hepatotoxicity [2]): 0

Cl.NCCNCCNCCN
DILI positive/negative (Hepatotoxicity [2]; Liver): 1

COCC(=O)O[C@]1(CCN(C)CCCc2nc3ccccc3[nH]2)CCc2cc(F)ccc2[C@@H]1C(C)C [MIBEFRADIL]
DILI positive/negative (Hepatotoxicity [2]): 0

N[C@@H](Cc1ccc(O)c(O)c1)C(=O)O [LEVODOPA]
DILI positive/negative (Hepatotoxicity [2]): 0

Nc1ncnc2c1ncn2[C@@H]1O[C@H](CO)[C@@H](O)[C@@H]1O [VIDARABINE]
DILI positive/negative (Hepatotoxicity [2]): 0

COc1cc(C(=O)NCc2ccc(OCCN(C)C)cc2)cc(OC)c1OC.Cl [TRIMETHOBENZAMIDE HYDROCHLORIDE]
DILI positive/negative (Hepatotoxicity [2]): 1

CCOC(=O)C1(c2ccccc2)CCN(CCC(C#N)(c2ccccc2)c2ccccc2)CC1.Cl [DIPHENOXYLATE HYDROCHLORIDE]
DILI positive/negative (Hepatotoxicity [2]): 0

CN1CCN2c3ccccc3Cc3ccccc3C2C1 (centres undefined) [MIANSERIN]
DILI positive/negative (Hepatotoxicity [2]): 1

Cl.Nc1cc(Cl)cc(Cl)c1
DILI positive/negative (Hepatotoxicity [2]): 0

CN(C)CCC(c1ccc(Br)cc1)c1ccccn1.O=C(O)/C=C\C(=O)O (centres undefined) [BROMPHENIRAMINE MALEATE]
DILI positive/negative (Hepatotoxicity [2]): 0

CCSCC[C@H](N)C(=O)O [ETHIONINE]
DILI positive/negative (Hepatotoxicity [2]): 1

O=S(=O)(O)O.Oc1cccc2cccnc12.Oc1cccc2cccnc12 [OXYQUINOLINE SULFATE]
DILI positive/negative (Hepatotoxicity [2]; Liver): 1

CCN(CC)Cc1cc(Nc2ccnc3cc(Cl)ccc23)ccc1O.Cl.Cl.Cl
DILI positive/negative (Hepatotoxicity [2]; Liver): 1

C[C@]12CC[C@@H]3c4ccc(O)cc4CC[C@H]3[C@@H]1CCC2=O [ESTRONE]
DILI positive/negative (Hepatotoxicity [2]): 1

CC1(C)S[C@@H]2[C@H](NC(=O)[C@H](NC(=O)N3CCNC3=O)c3ccccc3)C(=O)N2[C@H]1C(=O)[O-].[Na+] [AZLOCILLIN SODIUM]
DILI positive/negative (Hepatotoxicity [2]): 0

C#CC1(O)CC[C@H]2[C@@H]3CCC4=CC(=O)CC[C@@H]4[C@H]3CC[C@@]21CC (some centres undefined) [NORGESTREL]
DILI positive/negative (Hepatotoxicity [2]; Liver): 1

CCOc1ccc(NC(C)=O)cc1 [PHENACETIN]
DILI positive/negative (Hepatotoxicity [2]): 1

C[C@H](CCc1ccccc1)NC[C@H](O)c1ccc(O)c(C(N)=O)c1 [DILEVALOL]
DILI positive/negative (Hepatotoxicity [2]): 1

CC(C)COCC(CN(Cc1ccccc1)c1ccccc1)N1CCCC1.Cl.O (centres undefined) [BEPRIDIL HYDROCHLORIDE]
DILI positive/negative (Hepatotoxicity [2]): 1

CCCCNc1ccc(C(=O)OCCN(C)C)cc1.Cl [TETRACAINE HYDROCHLORIDE]
DILI positive/negative (Hepatotoxicity [2]): 0

Cl.Nc1ccc(/N=N/c2ccccc2)c(N)n1 [PHENAZOPYRIDINE HYDROCHLORIDE]
DILI positive/negative (Hepatotoxicity [2]): 1

C=C1CC[C@H](O)C/C1=C/C=C1\CCC[C@]2(C)[C@@H]([C@H](C)CCCC(C)(C)O)CC[C@@H]12.O [CALCIFEDIOL]
DILI positive/negative (Hepatotoxicity [2]): 1

Oc1ncc(N(CCCl)CCCl)c(O)n1 [URACIL MUSTARD]
DILI positive/negative (Hepatotoxicity [2]; Liver): 1

Cc1ccc2cc3c(ccc4ccccc43)c3c2c1CC3 [3-METHYLCHOLANTHRENE]
DILI positive/negative (Hepatotoxicity [2]): 1

COC(=O)Nc1nc2ccc(C(=O)c3cccs3)cc2[nH]1 [NOCODAZOLE]
DILI positive/negative (Hepatotoxicity [2]): 0

CCC1(c2ccccc2)CCC(=O)NC1=O (centres undefined) [GLUTETHIMIDE]
DILI positive/negative (Hepatotoxicity [2]): 1

Nc1nc(Cl)nc2c1ncn2[C@H]1C[C@H](O)[C@@H](CO)O1 [CLADRIBINE]
HepSE_bilirubinemia (Hepatotoxicity [3]): 0
HepSE_cholecystitis (Hepatotoxicity [4]): 0
HepSE_cholelithiasis (Hepatotoxicity [5]): 0
HepSE_cirrhosis (Hepatotoxicity [6]): 0
HepSE_elevated liver function tests (Hepatotoxicity [7]): 0
HepSE_hepatic failure (Hepatotoxicity [8]): 0
HepSE_hepatic necrosis (Hepatotoxicity [9]): 0
HepSE_hepatitis (Hepatotoxicity [10]): 0
HepSE_hepatomegaly (Hepatotoxicity [11]): 0
HepSE_jaundice (Hepatotoxicity [12]): 0
HepSE_liver disease (Hepatotoxicity [13]): 0
HepSE_liver fatty (Hepatotoxicity [14]): 0
HepSE_liver function tests abnormal (Hepatotoxicity [15]): 0
HepSE_Combined Scores (Hepatotoxicity [16]): 0
DILI positive/negative (Hepatotoxicity [2]): 0

C[C@H](CCC(=O)O)[C@H]1CC[C@H]2[C@@H]3[C@H](O)C[C@@H]4C[C@H](O)CC[C@]4(C)[C@H]3CC[C@]12C [CHENODIOL]
DILI positive/negative (Hepatotoxicity [2]): 1

Oc1c(Cl)cc(Cl)cc1Sc1cc(Cl)cc(Cl)c1O [BITHIONOL]
DILI positive/negative (Hepatotoxicity [2]): 1

CC[N+](CC)(CC)CCOc1cccc(OCC[N+](CC)(CC)CC)c1OCC[N+](CC)(CC)CC.[I-].[I-].[I-] [GALLAMINE TRIETHIODIDE]
DILI positive/negative (Hepatotoxicity [2]): 0

BISMUTH SUBSALICYLATE
DILI positive/negative (Hepatotoxicity [2]): 0

GALLIUM NITRATE HYDRATE
DILI positive/negative (Hepatotoxicity [2]): 0

O=C1O[C@H]([C@@H](O)CO)C(O)=C1O [ASCORBIC ACID]
DILI positive/negative (Hepatotoxicity [2]): 0

C=CC(O)CC#N (centres undefined)
DILI positive/negative (Hepatotoxicity [2]): 0

CC(=O)Nc1ccc2c(c1)Cc1ccccc1-2 [2-ACETYLAMINOFLUORENE]
DILI positive/negative (Hepatotoxicity [2]): 1

O=c1[nH]c(=O)n([C@H]2C[C@H](O)[C@@H](CO)O2)cc1F [FLOXURIDINE]
DILI positive/negative (Hepatotoxicity [2]): 1

COC(=O)C1=C(C)NC(C)=C(C(=O)OCC(C)C)C1c1ccccc1[N+](=O)[O-] (centres undefined) [NISOLDIPINE]
DILI positive/negative (Hepatotoxicity [2]): 0

CC1(C)S[C@@H]2[C@H](NC(=O)[C@H](NC(=O)N3CCN(S(C)(=O)=O)C3=O)c3ccccc3)C(=O)N2[C@H]1C(=O)[O-].[Na+] [MEZLOCILLIN SODIUM]
DILI positive/negative (Hepatotoxicity [2]; Liver): 1

CCN(CC)CCOc1ccc(C(=C(Cl)c2ccccc2)c2ccccc2)cc1 [CLOMIPHENE]
HepSE_bilirubinemia (Hepatotoxicity [3]): 0
HepSE_cholecystitis (Hepatotoxicity [4]): 0
HepSE_cholelithiasis (Hepatotoxicity [5]): 0
HepSE_cirrhosis (Hepatotoxicity [6]): 0
HepSE_elevated liver function tests (Hepatotoxicity [7]): 0
HepSE_hepatic failure (Hepatotoxicity [8]): 0
HepSE_hepatic necrosis (Hepatotoxicity [9]): 0
HepSE_hepatitis (Hepatotoxicity [10]): 1
HepSE_hepatomegaly (Hepatotoxicity [11]): 0
HepSE_jaundice (Hepatotoxicity [12]): 0
HepSE_liver disease (Hepatotoxicity [13]): 0
HepSE_liver fatty (Hepatotoxicity [14]): 0
HepSE_liver function tests abnormal (Hepatotoxicity [15]): 0
HepSE_Combined Scores (Hepatotoxicity [16]): 1
DILI positive/negative (Hepatotoxicity [2]): 1

C#C[C@]1(O)CC[C@H]2[C@@H]3CCc4cc(OC)ccc4[C@H]3CC[C@@]21C [MESTRANOL]
DILI positive/negative (Hepatotoxicity [2]): 1

CO[C@H]1C[C@H](O[C@H]2[C@H](C)[C@@H](O[C@@H]3O[C@H](C)C[C@H](N(C)C)[C@H]3OC(C)=O)[C@@H](C)C[C@@]3(CO3)C(=O)[C@H](C)[C@@H](OC(C)=O)[C@@H](C)[C@@H](C)OC(=O)[C@@H]2C)O[C@@H](C)[C@@H]1OC(C)=O [TROLEANDOMYCIN]
DILI positive/negative (Hepatotoxicity [2]): 1

Nc1ccc(S(=O)(=O)NC(=O)c2ccccc2)cc1 [SULFABENZAMIDE]
DILI positive/negative (Hepatotoxicity [2]): 0

CO[C@@]1(NC(=O)C(C(=O)[O-])c2ccc(O)cc2)C(=O)N2C(C(=O)[O-])=C(CSc3nnnn3C)CO[C@@H]21.[Na+].[Na+] (some centres undefined) [MOXALACTAM DISODIUM]
DILI positive/negative (Hepatotoxicity [2]): 0

c1ccc2c(c1)Nc1ccccc1S2 [PHENOTHIAZINE]
DILI positive/negative (Hepatotoxicity [2]): 1

CN1C(=O)OC(C)(C)C1=O [TRIMETHADIONE]
DILI positive/negative (Hepatotoxicity [2]): 1

Cl.O=C(O)CCCCCCNC1c2ccccc2CCc2ccccc21 [AMINEPTINE HYDROCHLORIDE]
DILI positive/negative (Hepatotoxicity [2]): 1

CC(=O)OCC1=C(C(=O)[O-])N2C(=O)[C@@H](NC(=O)Cc3cccs3)[C@H]2SC1.[Na+] [CEPHALOTHIN SODIUM]
DILI positive/negative (Hepatotoxicity [2]): 1

COc1ccc(CCN2CCC(Nc3nc4ccccc4n3Cc3ccc(F)cc3)CC2)cc1 [ASTEMIZOLE]
DILI positive/negative (Hepatotoxicity [2]): 0

Nc1ccc(C(=O)[O-])cc1.[K+] [AMINOBENZOATE POTASSIUM]
DILI positive/negative (Hepatotoxicity [2]): 0

Cc1cc(NC(=O)C2=C(O)c3ccccc3S(=O)(=O)N2C)no1 [ISOXICAM]
DILI positive/negative (Hepatotoxicity [2]): 0
